From ChEMBL document CHEMBL5042535, “Structure-Based Design and Synthesis of N-Substituted 3-Amino-β-Carboline Derivatives as Potent αβ-Tubulin Degradation Agents” (J Med Chem, 2022) come the findings set out here.

Structures are written as SMILES.

What all share (assay type): functional, cell-based
One test concerns MCF7. The test is described as follows: Antiproliferative activity against human MCF7 cells assessed as reduction in cell viability measured after 24 hrs by MTT assay. Particulars: MCF7, 24 h. On the technique in general: Tetrazolium assays rely on reduction of a dye to a coloured formazan, in cell work by metabolically active cells.
The test system of another test is HeLa. The experiment in a line: Antiproliferative activity against human HeLa cells assessed as reduction in cell viability measured after 24 hrs by MTT assay.
The next test deals with Raji. The test is described as follows: Antiproliferative activity against human Raji cells assessed as reduction in cell viability measured after 24 hrs by MTT assay.
In another test the test system is NCI-H460. The test is described as follows: Antiproliferative activity against human NCI-H460 cells assessed as reduction in cell viability measured after 24 hrs by MTT assay. The following applies: NCI-H460, 24 h.
In the next test the test system is A2780S. The test is described as follows: Antiproliferative activity against human A2780S cells assessed as reduction in cell viability measured after 24 hrs by MTT assay.

The term IC50 denotes the point on the concentration scale where inhibition reaches its midpoint. Turning to `CC(C)(C)CC(C)(C)c1ccc(Oc2cccc(CNc3cc4c(cn3)[nH]c3ccccc34)c2)cc1`, the IC50 in the test on MCF7, in the test on HeLa, in the test on Raji, in the test on NCI-H460 and in the test on A2780S was more than 500 nM in each case.
Consider `CC(C)CNc1cc2c(cn1)[nH]c1ccccc12`, for which the IC50 in the test with MCF7, with HeLa, in the test with Raji, with NCI-H460 and in the test on A2780S was more than 500 nM throughout.
As for `c1csc(CNc2cc3c(cn2)[nH]c2ccccc23)c1`, the half-maximal inhibitory concentration (IC50) was 424 nM in the test with MCF7; 412 nM with HeLa; 257 nM in the test on Raji; more than 500 nM in the test on NCI-H460; more than 500 nM with A2780S.
`Fc1ccccc1Oc1cccc(CNc2cc3c(cn2)[nH]c2ccccc23)c1`: the IC50 in the test with MCF7 came out at 93 nM; with HeLa, 59 nM; in the test with Raji, 16 nM; in the test with NCI-H460 it was 105 nM; in the test on A2780S it was 73 nM.
As to `N#Cc1cccc(Oc2cccc(CNc3cc4c(cn3)[nH]c3ccccc34)c2)c1`, the concentration for half-maximal inhibition (IC50) with MCF7 was more than 500 nM; with HeLa, 500 nM; in the test on Raji, more than 500 nM; with NCI-H460 it was more than 500 nM; in the test on A2780S, more than 500 nM.
Regarding `c1cncc(Oc2cccc(CNc3cc4c(cn3)[nH]c3ccccc34)c2)c1`, the concentration for half-maximal inhibition (IC50) with MCF7 amounted to 153 nM; in the test on HeLa, 209 nM; in the test with Raji it was 333 nM; with NCI-H460, 333 nM; with A2780S, 229 nM.
Consider `CCCCNc1cc2c(cn1)[nH]c1ccccc12`, for which the IC50 with MCF7 was 513 nM; in the test on HeLa it was more than 500 nM; with Raji, 220 nM; in the test with NCI-H460, 340 nM; with A2780S, 175 nM.
Turning to `Fc1ccc(Oc2cccc(CNc3cc4c(cn3)[nH]c3ccccc34)c2)cc1`, the half-maximal inhibitory concentration (IC50) in the test on MCF7 came out at 27 nM; with HeLa it was 39 nM; with Raji, 33 nM; in the test with NCI-H460, 76 nM; in the test with A2780S it was 28 nM.
As for `c1ccc(Oc2cccc(CNc3cc4c(cn3)[nH]c3ccccc34)c2)cc1`, the IC50 is 49 nM with MCF7; 51 nM in the test on HeLa; 31 nM in the test on Raji; 62 nM in the test with NCI-H460; 45 nM in the test with A2780S.
Consider `CC(=O)Nc1ccc(Oc2cccc(CNc3cc4c(cn3)[nH]c3ccccc34)c2)cc1`, for which the IC50 in the test with MCF7 turned out to be 27 nM; in the test on HeLa, 67 nM; in the test on Raji, 15 nM; in the test with NCI-H460, 31 nM; in the test on A2780S, 11 nM.
`c1ccc(-c2ccc(Oc3cccc(CNc4cc5c(cn4)[nH]c4ccccc45)c3)cc2)cc1`: the IC50 in the test with MCF7, in the test with HeLa, with Raji, with NCI-H460 and with A2780S was more than 500 nM in each case.
Take `c1cc2ccc3cccc4c(CNc5cc6c(cn5)[nH]c5ccccc56)cc(c1)c2c34`: the 50% inhibitory concentration (IC50) in the test with MCF7, in the test on HeLa, with Raji, in the test with NCI-H460 and in the test on A2780S was more than 500 nM in each case.
On to `c1ccc2ncc(CNc3cc4c(cn3)[nH]c3ccccc34)cc2c1`, for which the IC50 in the test with MCF7, in the test with HeLa, in the test with Raji, with NCI-H460 and in the test with A2780S was more than 500 nM in each case.
For `c1ccc2c(c1)[nH]c1cnc(NCc3ccoc3)cc12`, the IC50 in the test on MCF7 is 71 nM; in the test with HeLa it was 66 nM; in the test on Raji, 73 nM; with NCI-H460, 342 nM; in the test with A2780S, 93 nM.
For `Fc1cccc(Oc2cccc(CNc3cc4c(cn3)[nH]c3ccccc34)c2)c1` the same measures were 59 nM, 71 nM, 42 nM, 50 nM and 41 nM.
